The source of these data is patent publication US12180193B2, “Accelerating fibrosarcoma protein degrading compounds and associated methods of use” (Arvinas Operations, Inc., priority 2020, dated 2024).

In one test the target is T1, BRAF V600E (Homo sapiens, UniProt P15056, V600E).
T1 construct: expressed in transfected cells
As to the kind of experiment: Cellular assay of target protein degradation, T-Rex 293 cells stably transfected with HA-BRAF_V600E (HA immunofluorescence, high content imaging). The format is cell-based. The following applies: T-Rex 293 HA-BRAF V600E; for DC50: half maximal degradation, read-out: BRaf V600E DC50; for Dmax: maximum degradation observed. Summed up: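 Degradation of the HA-tagged construct is measured after 24 h treatment at 37 °C across 1 μM to 0.1 nM in 0.1% DMSO, in doxycycline-induced (1 ng/mL) cells. DC50 and Dmax come from HA fluorescence imaging.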

The target in another test is T2, BRAF G466V (Homo sapiens, UniProt P15056, G466V).
T2 construct: expressed in transfected cells
T2 sequence (P15056 whole entry G466V): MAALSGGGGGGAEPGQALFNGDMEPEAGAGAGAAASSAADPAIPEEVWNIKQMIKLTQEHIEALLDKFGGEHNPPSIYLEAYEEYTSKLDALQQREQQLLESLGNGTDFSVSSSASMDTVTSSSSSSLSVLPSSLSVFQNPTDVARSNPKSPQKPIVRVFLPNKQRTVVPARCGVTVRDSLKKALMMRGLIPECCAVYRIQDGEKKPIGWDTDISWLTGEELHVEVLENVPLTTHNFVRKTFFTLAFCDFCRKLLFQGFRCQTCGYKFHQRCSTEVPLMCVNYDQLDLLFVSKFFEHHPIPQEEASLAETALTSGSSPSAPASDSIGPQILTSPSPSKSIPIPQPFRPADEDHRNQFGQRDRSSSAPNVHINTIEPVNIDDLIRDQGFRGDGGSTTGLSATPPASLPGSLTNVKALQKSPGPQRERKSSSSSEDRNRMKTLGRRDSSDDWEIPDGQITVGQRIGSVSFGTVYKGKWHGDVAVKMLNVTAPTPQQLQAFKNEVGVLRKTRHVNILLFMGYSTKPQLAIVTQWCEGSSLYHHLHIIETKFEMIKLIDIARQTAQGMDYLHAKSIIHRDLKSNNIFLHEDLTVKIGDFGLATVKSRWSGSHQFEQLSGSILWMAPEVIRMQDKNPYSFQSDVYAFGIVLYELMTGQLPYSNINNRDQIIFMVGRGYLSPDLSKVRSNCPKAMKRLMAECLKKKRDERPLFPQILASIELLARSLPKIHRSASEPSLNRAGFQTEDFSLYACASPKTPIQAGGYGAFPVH
Kind of test: Cellular assay of target protein degradation, T-Rex 293 cells stably transfected with HA-BRAF G466V (HA immunofluorescence, high content imaging). To be noted: T-Rex 293 HA-BRAF G466V; for DC50: half maximal degradation, read-out: BRaf G466V DC50; for Dmax: maximum degradation observed. Format: cell-based. Summed up:
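Dose range spans 30 nM to 3 pM (0.1% DMSO) over 24 hours at 37° C, in cells induced with 0.75 ng/mL doxycycline. Fixed cells are probed with anti-HA antibody overnight at 4° C, then imaged; half-maximal degradation and maximum degradation are derived.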

A word on the DC50: it is the concentration giving 50% degradation. As usually defined, the Dmax is the greatest extent of degradation seen. Lower therefore signals a partial loss of target.

T1 sequence (P15056 whole entry V600E): as the sequence (P15056 whole entry G466V) above, with V466G, V600E counted along it

On to `O=C1CC[C@@H](N2Cc3cc(CCCCN4CC5(C4)CN(c4ccc(-c6cnc7[nH]cc(C(=O)c8c(F)ccc(NS(=O)(=O)N9CC[C@@H](F)C9)c8F)c7c6)cc4)C5)ccc3C2=O)C(=O)N1` [Compound 63, (3R)-N-[3-(5-{4-[6-(4-{2-[(3R)-2,6-dioxopiperidin-3-yl]-1-oxo-2,3-dihydro-1H-isoindol-5-yl}butyl)-2,6-diazaspiro[3.3]heptan-2-yl]phenyl}-1H-pyrrolo[2,3-b]pyridine-3-carbonyl)-2,4-difluorophenyl]-3-fluoropyrrolidine-1-sulfonamide], for which the DC50 on BRAF V600E was more than 0.5 µM; at BRAF G466V, 0.001 to 0.01 µM. On BRAF G466V, the greatest degradation seen (Dmax) is more than 70%.
Turning to `O=C1CCC(N2Cc3cc(CCCCCN4CCN(c5ccc(-c6cnc7[nH]cc(C(=O)c8c(F)ccc(NS(=O)(=O)N9CC[C@@H](F)C9)c8F)c7c6)cc5)CC4)ccc3C2=O)C(=O)N1` (stereo partly drawn) [Compound 64, (3R)-N-(3-{5-[4-(4-{5-[2-(2,6-dioxopiperidin-3-yl)-1-oxo-2,3-dihydro-1H-isoindol-5-yl]pentyl}piperazin-1-yl)phenyl]-1H-pyrrolo[2,3-b]pyridine-3-carbonyl}-2,4-difluorophenyl)-3-fluoropyrrolidine-1-sulfonamide], on BRAF V600E, the 50% degradation concentration (DC50) is 0.005 to 0.05 µM and the Dmax lay in the range of 35 to 70%. Further, at BRAF G466V, the half-maximal degradation concentration (DC50) is less than 0.001 µM and the Dmax lay in the range of 35 to 70%.
In the case of `O=C1CCC(N2Cc3cc(CCCCCN4CCC(c5ccc(-c6cnc7[nH]cc(C(=O)c8c(F)ccc(NS(=O)(=O)N9CC[C@@H](F)C9)c8F)c7c6)cc5)CC4)ccc3C2=O)C(=O)N1` (stereo partly drawn) [Compound 65, (3R)-N-(3-{5-[4-(1-{5-[2-(2,6-dioxopiperidin-3-yl)-1-oxo-2,3-dihydro-1H-isoindol-5-yl]pentyl}piperidin-4-yl)phenyl]-1H-pyrrolo[2,3-b]pyridine-3-carbonyl}-2,4-difluorophenyl)-3-fluoropyrrolidine-1-sulfonamide], on BRAF V600E, the 50% degradation concentration (DC50) lay in the range of 0.005 to 0.05 µM and the Dmax was 35 to 70%. In addition, at BRAF G466V, the DC50 is less than 0.001 µM and the greatest degradation seen (Dmax) is 35 to 70%.
Turning to `O=C1CCC(N2Cc3cc(N4CCC(N5CCCC56CN(c5ccc(-c7cnc8[nH]cc(C(=O)c9c(F)ccc(NS(=O)(=O)N%10CC[C@@H](F)C%10)c9F)c8c7)cc5)C6)CC4)ccc3C2=O)C(=O)N1` (stereo partly drawn) [Compound 66, (3R)-N-(3-{5-[4-(5-{1-[2-(2,6-dioxopiperidin-3-yl)-1-oxo-2,3-dihydro-1H-isoindol-5-yl]piperidin-4-yl}-2,5-diazaspiro[3.4]octan-2-yl)phenyl]-1H-pyrrolo[2,3-b]pyridine-3-carbonyl}-2,4-difluorophenyl)-3-fluoropyrrolidine-1-sulfonamide], the DC50 on BRAF V600E is more than 0.5 µM; on BRAF G466V, 0.01 to 0.03 µM. In addition, the Dmax on BRAF G466V was more than 70%.
Regarding `O=C1CC[C@H](N2Cc3cc([C@H](O)CCN4CCC(c5ccc(-c6cnc7[nH]cc(C(=O)c8c(F)ccc(NS(=O)(=O)N9CC[C@@H](F)C9)c8F)c7c6)cc5)CC4)ccc3C2=O)C(=O)N1` [Compound 67, (3R)—N-[3-[5-(4-[1-[(3R)-3-[2-[(3S)-2,6-dioxopiperidin-3-yl]-1-oxo-3H-isoindol-5-yl]-3-hydroxypropyl]piperidin-4-yl]phenyl)-1H-pyrrolo[2,3-b]pyridine-3-carbonyl]-2,4-difluorophenyl]-3-fluoropyrrolidine-1-sulfonamide], the DC50 on BRAF V600E fell in the range of 0.005 to 0.05 µM; on BRAF G466V, 0.001 to 0.01 µM. In addition, the Dmax at BRAF V600E is 35 to 70%; at BRAF G466V it was more than 70%.
In the case of `O=C1CC[C@@H](N2Cc3cc([C@H](O)CCN4CCC(c5ccc(-c6cnc7[nH]cc(C(=O)c8c(F)ccc(NS(=O)(=O)N9CC[C@@H](F)C9)c8F)c7c6)cc5)CC4)ccc3C2=O)C(=O)N1` [Compound 68, (3R)—N-[3-[5-(4-[1-[(3R)-3-[2-[(3R)-2,6-dioxopiperidin-3-yl]-1-oxo-3H-isoindol-5-yl]-3-hydroxypropyl]piperidin-4-yl]phenyl)-1H-pyrrolo[2,3-b]pyridine-3-carbonyl]-2,4-difluorophenyl]-3-fluoropyrrolidine-1-sulfonamide], the DC50 on BRAF V600E is more than 0.5 µM. Further, at BRAF G466V, the DC50 was 0.001 to 0.01 µM and the greatest degradation seen (Dmax) is more than 70%.
Regarding `O=C1CCC(N2Cc3cc(C4CCN(CCOc5ccc(-c6cnc7[nH]cc(C(=O)c8c(F)ccc(NS(=O)(=O)N9CC[C@@H](F)C9)c8F)c7c6)cc5)CC4)ccc3C2=O)C(=O)N1` (stereo partly drawn) [Compound 69, (3R)-N-(3-{5-[4-(2-{4-[2-(2,6-dioxopiperidin-3-yl)-1-oxo-2,3-dihydro-1H-isoindol-5-yl]piperidin-1-yl}ethoxy)phenyl]-1H-pyrrolo[2,3-b]pyridine-3-carbonyl}-2,4-difluorophenyl)-3-fluoropyrrolidine-1-sulfonamide], on BRAF V600E, the DC50 lay within 0.005 to 0.05 µM and the Dmax lay in the range of 35 to 70%. In addition, on BRAF G466V, the 50% degradation concentration (DC50) lay within 0.001 to 0.01 µM and the Dmax was more than 70%.
As for `COc1cc(N2CC(CN3CCN(c4ccc(-c5cnc6[nH]cc(C(=O)c7c(F)ccc(NS(=O)(=O)N8CC[C@@H](F)C8)c7F)c6c5)cc4)CC3)C2)cc2c1C(=O)N(C1CCC(=O)NC1=O)C2` (stereo partly drawn) [Compound 70, (3R)-N-[3-(5-{4-[4-({1-[2-(2,6-dioxopiperidin-3-yl)-7-methoxy-1-oxo-2,3-dihydro-1H-isoindol-5-yl]azetidin-3-yl}methyl)piperazin-1-yl]phenyl}-1H-pyrrolo[2,3-b]pyridine-3-carbonyl)-2,4-difluorophenyl]-3-fluoropyrrolidine-1-sulfonamide], at BRAF V600E, the DC50 lay within 0.005 to 0.05 µM and the greatest degradation seen (Dmax) lay within 35 to 70%. Moreover, on BRAF G466V, the DC50 was less than 0.001 µM and the maximal degradation (Dmax) was in the range of 35 to 70%.
On to `O=C1CC[C@H](N2Cc3cc([C@@H](O)CCN4CCC(c5ccc(-c6cnc7[nH]cc(C(=O)c8c(F)ccc(NS(=O)(=O)N9CC[C@@H](F)C9)c8F)c7c6)cc5)CC4)ccc3C2=O)C(=O)N1` [Compound 71, (3R)-N-{3-[5-(4-{1-[(3S)-3-{2-[(3S)-2,6-dioxopiperidin-3-yl]-1-oxo-2,3-dihydro-1H-isoindol-5-yl}-3-hydroxypropyl]piperidin-4-yl}phenyl)-1H-pyrrolo[2,3-b]pyridine-3-carbonyl]-2,4-difluorophenyl}-3-fluoropyrrolidine-1-sulfonamide], for which, at BRAF V600E, the half-maximal degradation concentration (DC50) fell in the range of 0.005 to 0.05 µM and the Dmax is 35 to 70%. For the same molecule, at BRAF G466V, the DC50 was 0.001 to 0.01 µM and the Dmax is more than 70%.
For `O=C1CC[C@@H](N2Cc3cc([C@@H](O)CCN4CCC(c5ccc(-c6cnc7[nH]cc(C(=O)c8c(F)ccc(NS(=O)(=O)N9CC[C@@H](F)C9)c8F)c7c6)cc5)CC4)ccc3C2=O)C(=O)N1` [Compound 72, (3R)-N-{3-[5-(4-{1-[(3S)-3-{2-[(3R)-2,6-dioxopiperidin-3-yl]-1-oxo-2,3-dihydro-1H-isoindol-5-yl}-3-hydroxypropyl]piperidin-4-yl}phenyl)-1H-pyrrolo[2,3-b]pyridine-3-carbonyl]-2,4-difluorophenyl}-3-fluoropyrrolidine-1-sulfonamide] the same measures were 0.005 to 0.05 µM, less than 35%, 0.001 to 0.01 µM and 35 to 70%.
